Test results from patent US9695155B2, “Herbicidal substituted pyrimidinyloxy benzene compounds” (E. I. DU PONT DE NEMOURS AND COMPANY, priority 2013, dated 2017).

Key:
wheat = assay: Test A postemergence; type: in vivo, Triticum aestivum; conditions: 0 to 100 scale where 0 is no effect and 100 is complete control; for Plant response rating, Wheat: 500 g ai/ha
Outline: (§1)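 Greenhouse pot test, loam/sand soil. Formulation: non-phytotoxic solvent mix plus surfactant. Pre: directed spray onto soil after sowing. Post: plants at 1–2 leaf, 2–10 cm. Rated visually vs untreated controls at ~10 d, 0 (no effect) to 100 (complete control).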

velvetleaf [1] = assay: Test C postemergence; type: in vivo, Abutilon theophrasti
Outline: (§2)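 Plants were kept under greenhouse conditions for 13–15 days following spray. Pre-emergent application went to soil (loam–sand), post-emergent to foliage at 1–4 leaves. Evaluation: visual, percent control against untreated checks.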

giant foxtail = assay: Test C preemergence; type: in vivo, Setaria faberii; conditions: for Foxtail, Giant plant response rating: preemergence; for Plant response rating, Foxtail, Giant: Preemergence, 31 g ai/ha, scale 0 to 100, 0 no effect, 100 complete control
Outline: as §2

pigweed [2] = assay: Test A preemergence; type: in vivo, Amaranthus retroflexus; conditions: for Pigweed plant response rating: 500 g ai/ha
Outline: as §1

oilseed rape = assay: Test C postemergence; type: in vivo, Brassica napus
Outline: as §2

ragweed [3] = assay: Test C preemergence; type: in vivo, Ambrosia elatior; conditions: for Ragweed plant response rating: preemergence
Outline: as §2

morningglory = assay: Test A preemergence; type: in vivo, Ipomoea spp.; conditions: for Morningglory plant response rating: 500 g ai/ha
Outline: as §1

ragweed [4] = assay: Test C postemergence; type: in vivo, Ambrosia elatior
Outline: as §2

soybean = assay: Test C preemergence; type: in vivo, Glycine max; conditions: for Soybean plant response rating: preemergence
Outline: as §2

large (Lg) crabgrass = assay: Test A preemergence; type: in vivo, Digitaria sanguinalis; conditions: for Plant response rating, Crabgrass, Large: 125 g ai/ha; for Crabgrass, Large plant response rating: 500 g ai/ha
Outline: as §1

galium = assay: Test C postemergence; type: in vivo, Galium aparine; conditions: for Galium plant response rating / Plant response rating, Galium: scale 0 to 100 (0 no effect, 100 complete control); for Galium plant response rating: 13 to 15 days
Outline: as §2

johnsongrass = assay: Test C preemergence; type: in vivo, Sorghum halepense; conditions: for Johnsongrass plant response rating: preemergence
Outline: as §2

corn = assay: Test A postemergence; type: in vivo, Zea mays; conditions: 0 to 100 scale where 0 is no effect and 100 is complete control
Outline: as §1

waterhemp = assay: Test C preemergence; type: in vivo, Amaranthus rudis; conditions: for Waterhemp plant response rating: preemergence
Outline: as §2

velvetleaf [5] = assay: Test A preemergence; type: in vivo, Abutilon theophrasti
Outline: as §1

pigweed [6] = assay: Test C postemergence; type: in vivo, Amaranthus retroflexus
Outline: as §2

[7] = 125 g ai/ha, postemergence, visual rating, scale 0 to 100 (0 no effect, 100 complete control)
[8] = Postemergence, 62 g ai/ha, scale 0 to 100 (0 no effect, 100 complete control)
[9] = 16 g ai/ha, scale 0 to 100 (0 no effect, 100 complete control)
[10] = 62 g ai/ha, scale 0 (no effect) to 100 (complete control)
[11] = 125 g ai/ha, scale 0 (no effect) to 100 (complete control)
[12] = 125 g ai/ha, 0 to 100 scale where 0 is no effect and 100 is complete control
[13] = 0 to 100 scale, 0 no effect, 100 complete control, approx. 10 days
[14] = Preemergence, 31 g ai/ha, scale 0 to 100, 0 no effect, 100 complete control
[15] = 0 to 100 scale where 0 is no effect and 100 is complete control
[16] = 125 g ai/ha, postemergence, visual rating
[17] = 16 g ai/ha, postemergence, 0 is no effect, 100 is complete control
[18] = 31 g ai/ha, postemergence, visual rating, scale 0 to 100 (0 no effect, 100 complete control), 13 to 15 days

SMILES: N#Cc1cnn(-c2c(C#N)cccc2Oc2ncc(F)cn2)c1 [Compound 111]
- Plant response rating, Wheat (wheat): 80
- Plant response rating, Velvetleaf (velvetleaf [1]; [7]): 80
- Plant response rating, Velvetleaf (velvetleaf [1]; [8]): 75
- Foxtail, Giant plant response rating (giant foxtail; [9]): 15
- Foxtail, Giant plant response rating (giant foxtail; [10]): 100
- Foxtail, Giant plant response rating (giant foxtail; [11]): 100
- Plant response rating, Foxtail, Giant (giant foxtail): 100
- Plant response rating, Pigweed (pigweed [2]; [12]): 100
- Pigweed plant response rating (pigweed [2]; [13]): 100
- Plant response rating, Oilseed Rape (oilseed rape; [7]): 80
- Plant response rating, Oilseed Rape (oilseed rape; [8]): 60
- Ragweed plant response rating (ragweed [3]; [9]): 10
- Ragweed plant response rating (ragweed [3]; [10]): 100
- Ragweed plant response rating (ragweed [3]; [11]): 100
- Plant response rating, Ragweed (ragweed [3]; [14]): 50
- Plant response rating, Morningglory (morningglory; [12]): 90
- Morningglory plant response rating (morningglory; [13]): 100
- Plant response rating, Ragweed (ragweed [4]; [7]): 90
- Plant response rating, Ragweed (ragweed [4]; [8]): 70
- Soybean plant response rating (soybean; [9]): 30
- Soybean plant response rating (soybean; [10]): 80
- Soybean plant response rating (soybean; [11]): 95
- Plant response rating, Soybean (soybean; [14]): 60
- Plant response rating, Crabgrass, Large (large (Lg) crabgrass; [15]): 100
- Crabgrass, Large plant response rating (large (Lg) crabgrass; [13]): 100
- Galium plant response rating (galium; 16 g ai/ha, postemergence, visual rating): 80
- Plant response rating, Galium (galium; [16]): 100
- Plant response rating, Galium (galium; Postemergence, 62 g ai/ha): 90
- Johnsongrass plant response rating (johnsongrass; [9]): 0
- Johnsongrass plant response rating (johnsongrass; [10]): 25
- Johnsongrass plant response rating (johnsongrass; [11]): 80
- Plant response rating, Johnsongrass (johnsongrass; [14]): 5
- Plant response rating, Corn (corn; 125 g ai/ha): 30
- Plant response rating, Corn (corn; 500 g ai/ha): 90
- Waterhemp plant response rating (waterhemp; [9]): 100
- Waterhemp plant response rating (waterhemp; [10]): 100
- Waterhemp plant response rating (waterhemp; [11]): 100
- Plant response rating, Waterhemp (waterhemp; [14]): 100
- Plant response rating, Velvetleaf (velvetleaf [5]; [12]): 70
- Plant response rating, Pigweed (pigweed [6]; [7]): 85
- Plant response rating, Pigweed (pigweed [6]; [8]): 85

SMILES: FC(F)(F)c1cnn(-c2c(Cl)cccc2Oc2ncc(Cl)cn2)c1 [Compound 167]
- Wheat plant response rating (wheat; 125 g ai/ha): 20
- Plant response rating, Wheat (wheat): 60
- Plant response rating (0 to 100), Velvetleaf (velvetleaf [1]; [17]): 35
- Velvetleaf plant response rating (velvetleaf [1]; [18]): 40
- Plant response rating, Velvetleaf (velvetleaf [1]; [7]): 70
- Plant response rating, Velvetleaf (velvetleaf [1]; [8]): 40
- Foxtail, Giant plant response rating (giant foxtail; [9]): 35
- Foxtail, Giant plant response rating (giant foxtail; [10]): 100
- Foxtail, Giant plant response rating (giant foxtail; [11]): 100
- Plant response rating, Foxtail, Giant (giant foxtail): 95
- Pigweed plant response rating (0 to 100 scale) (pigweed [2]; 125 g ai/ha): 100
- Pigweed plant response rating (pigweed [2]; [15]): 100
- Plant response rating (0 to 100), Oilseed Rape (oilseed rape; [17]): 15
- Oilseed Rape plant response rating (oilseed rape; [18]): 50
- Plant response rating, Oilseed Rape (oilseed rape; [7]): 70
- Plant response rating, Oilseed Rape (oilseed rape; [8]): 85
- Ragweed plant response rating (ragweed [3]; [9]): 15
- Ragweed plant response rating (ragweed [3]; [10]): 15
- Ragweed plant response rating (ragweed [3]; [11]): 20
- Morningglory plant response rating (0 to 100 scale) (morningglory; 125 g ai/ha): 90
- Morningglory plant response rating (morningglory; [15]): 100
- Plant response rating (0 to 100), Ragweed (ragweed [4]; [17]): 10
- Ragweed plant response rating (ragweed [4]; [18]): 10
- Plant response rating, Ragweed (ragweed [4]; [7]): 55
- Plant response rating, Ragweed (ragweed [4]; [8]): 30
- Soybean plant response rating (soybean; [9]): 10
- Soybean plant response rating (soybean; [10]): 90
- Soybean plant response rating (soybean; [11]): 90
- Plant response rating, Crabgrass, Large (large (Lg) crabgrass; [15]): 100
- Crabgrass, Large plant response rating (large (Lg) crabgrass; [15]): 100
- Plant response rating (0 to 100), Galium (galium; [17]): 70
- Galium plant response rating (galium; 31 g ai/ha, postemergence, visual rating): 70
- Plant response rating, Galium (galium; [16]): 90
- Plant response rating, Galium (galium; Postemergence, 62 g ai/ha): 70
- Johnsongrass plant response rating (johnsongrass; [9]): 5
- Johnsongrass plant response rating (johnsongrass; [10]): 80
- Johnsongrass plant response rating (johnsongrass; [11]): 95
- Corn plant response rating (corn; 125 g ai/ha): 40
- Plant response rating, Corn (corn; 500 g ai/ha): 50
- Waterhemp plant response rating (waterhemp; [9]): 100
- Waterhemp plant response rating (waterhemp; [10]): 100
- Waterhemp plant response rating (waterhemp; [11]): 100
- Velvetleaf plant response rating (0 to 100 scale) (velvetleaf [5]; 125 g ai/ha): 80
- Velvetleaf plant response rating (velvetleaf [5]; 500 g ai/ha, 0 to 100 scale where 0 is no effect and 100 is complete control): 100
- Plant response rating (0 to 100), Pigweed (pigweed [6]; [17]): 80
- Pigweed plant response rating (pigweed [6]; [18]): 90
- Plant response rating, Pigweed (pigweed [6]; [7]): 98
- Plant response rating, Pigweed (pigweed [6]; [8]): 95
